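All cell lines were grown in 96-well plates and treated with compound for 48 hours. GI50 marks 50% less growth. The concentration for full growth arrest is given as TGI.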
Assays:
Test in all cases: NCI tumour cell line growth inhibition, 48 h
786-0 renal = test system: 786-0 renal
A549 NSCLC = test system: A549 NSCLC
ACHN renal = test system: ACHN renal
CAKI-1 renal = test system: CAKI-1 renal
COLO 205 colon = test system: COLO 205 colon
DU-145 prostate = test system: DU-145 prostate
EKVX NSCLC = test system: EKVX NSCLC
HCT-116 colon = test system: HCT-116 colon
HCT-15 colon = test system: HCT-15 colon
HOP-62 NSCLC = test system: HOP-62 NSCLC
HS 578T breast = test system: HS 578T breast
HT29 colon = test system: HT29 colon
IGROV1 ovarian = test system: IGROV1 ovarian
KM12 colon = test system: KM12 colon
LOX IMVI melanoma = test system: LOX IMVI melanoma
M14 melanoma = test system: M14 melanoma
MALME-3M melanoma = test system: MALME-3M melanoma
MCF7 breast = test system: MCF7 breast
MDA-MB-231 breast = test system: MDA-MB-231 breast
MDA-MB-435 = test system: MDA-MB-435
NCI-H226 lung = test system: NCI-H226 lung
NCI-H23 lung = test system: NCI-H23 lung
NCI-H460 lung = test system: NCI-H460 lung
NCI-H522 lung = test system: NCI-H522 lung
NCI/ADR-RES ovarian = test system: NCI/ADR-RES ovarian
OVCAR-3 ovarian = test system: OVCAR-3 ovarian
OVCAR-4 ovarian = test system: OVCAR-4 ovarian
OVCAR-5 ovarian = test system: OVCAR-5 ovarian
RXF 393 renal = test system: RXF 393 renal
SF-268 CNS = test system: SF-268 CNS
SF-295 CNS = test system: SF-295 CNS
SF-539 CNS = test system: SF-539 CNS
SK-MEL-2 melanoma = test system: SK-MEL-2 melanoma
SK-MEL-28 melanoma = test system: SK-MEL-28 melanoma
SK-MEL-5 melanoma = test system: SK-MEL-5 melanoma
SK-OV-3 ovarian = test system: SK-OV-3 ovarian
SN12C renal = test system: SN12C renal
SNB-19 CNS = test system: SNB-19 CNS
SNB-75 CNS = test system: SNB-75 CNS
SW-620 colon = test system: SW-620 colon
T-47D breast = test system: T-47D breast
TK-10 renal = test system: TK-10 renal
U251 CNS = test system: U251 CNS
UACC-257 melanoma = test system: UACC-257 melanoma
UACC-62 melanoma = test system: UACC-62 melanoma
UO-31 renal = test system: UO-31 renal
A498 renal = test system: A498 renal
BT-549 breast = test system: BT-549 breast
HCC-2998 colon = test system: HCC-2998 colon
HL-60(TB) leukemia = test system: HL-60(TB) leukemia
HOP-92 NSCLC = test system: HOP-92 NSCLC
MOLT-4 leukemia = test system: MOLT-4 leukemia
RPMI-8226 leukemia = test system: RPMI-8226 leukemia

**Q.** Which TGI (786-0 renal) does the source give for `Cc1ccc(/C(=C/C=C(C#N)C#N)Sc2cc(Cl)ccc2Cl)cc1` here?
**A.** 5.01 µM

**Q.** And the TGI (A549 NSCLC)?
**A.** > 100 µM

**Q.** What about the TGI (ACHN renal) of the same molecule?
**A.** 10 µM

**Q.** And the TGI (CAKI-1 renal)?
**A.** 19.9 µM

**Q.** What about the TGI (COLO 205 colon) of the same molecule?
**A.** 20.4 µM

**Q.** What about the TGI (DU-145 prostate) of the same molecule?
**A.** 13.9 µM

**Q.** What about the TGI (EKVX NSCLC) of the same molecule?
**A.** 46.6 µM

**Q.** And the TGI (HCT-116 colon)?
**A.** 5.06 µM

**Q.** And the TGI (HCT-15 colon)?
**A.** 12.5 µM

**Q.** What about the TGI (HOP-62 NSCLC) of the same molecule?
**A.** > 100 µM

**Q.** And the TGI (HS 578T breast)?
**A.** 9.23 µM

**Q.** And the TGI (HT29 colon)?
**A.** > 100 µM

**Q.** And the TGI (IGROV1 ovarian)?
**A.** 32.6 µM

**Q.** What about the TGI (KM12 colon) of the same molecule?
**A.** 28 µM

**Q.** What about the TGI (LOX IMVI melanoma) of the same molecule?
**A.** 3.33 µM

**Q.** What about the TGI (M14 melanoma) of the same molecule?
**A.** 16.4 µM

**Q.** And the TGI (MALME-3M melanoma)?
**A.** 35.5 µM

**Q.** What about the TGI (MCF7 breast) of the same molecule?
**A.** > 100 µM

**Q.** What about the TGI (MDA-MB-231 breast) of the same molecule?
**A.** 13 µM

**Q.** And the TGI (MDA-MB-435)?
**A.** 7.46 µM

**Q.** And the TGI (NCI-H226 lung)?
**A.** 13.6 µM

**Q.** And the TGI (NCI-H23 lung)?
**A.** 16.1 µM

**Q.** What about the TGI (NCI-H460 lung) of the same molecule?
**A.** > 100 µM

**Q.** And the TGI (NCI-H522 lung)?
**A.** 22.1 µM

**Q.** What about the TGI (NCI/ADR-RES ovarian) of the same molecule?
**A.** 7.58 µM

**Q.** And the TGI (OVCAR-3 ovarian)?
**A.** 11.8 µM

**Q.** And the TGI (OVCAR-4 ovarian)?
**A.** 37.7 µM

**Q.** And the TGI (OVCAR-5 ovarian)?
**A.** 19.4 µM

**Q.** And the TGI (RXF 393 renal)?
**A.** 27.8 µM

**Q.** What about the TGI (SF-268 CNS) of the same molecule?
**A.** 43.9 µM

**Q.** What about the TGI (SF-295 CNS) of the same molecule?
**A.** 16 µM

**Q.** What about the TGI (SF-539 CNS) of the same molecule?
**A.** 12.4 µM

**Q.** What about the TGI (SK-MEL-2 melanoma) of the same molecule?
**A.** > 100 µM

**Q.** What about the TGI (SK-MEL-28 melanoma) of the same molecule?
**A.** 28.9 µM

**Q.** And the TGI (SK-MEL-5 melanoma)?
**A.** 26.4 µM

**Q.** What about the TGI (SK-OV-3 ovarian) of the same molecule?
**A.** 27.8 µM

**Q.** And the TGI (SN12C renal)?
**A.** 13.9 µM

**Q.** And the TGI (SNB-19 CNS)?
**A.** 22.3 µM

**Q.** And the TGI (SNB-75 CNS)?
**A.** 38.7 µM

**Q.** What about the TGI (SW-620 colon) of the same molecule?
**A.** 22.5 µM

**Q.** And the TGI (T-47D breast)?
**A.** 67.5 µM

**Q.** And the TGI (TK-10 renal)?
**A.** 18.7 µM

**Q.** What about the TGI (U251 CNS) of the same molecule?
**A.** 15 µM

**Q.** What about the TGI (UACC-257 melanoma) of the same molecule?
**A.** 7.8 µM

**Q.** What about the TGI (UACC-62 melanoma) of the same molecule?
**A.** 15.3 µM

**Q.** And the TGI (UO-31 renal)?
**A.** > 100 µM

**Q.** Which GI50 (A498 renal) does the source give for `CN1CCN(Cc2ccc(NC(=O)c3ccc(C#N)c(C#Cc4cnc(N)c5ncccc45)c3)cc2C(F)(F)F)CC1` here?
**A.** 3.25 µM

**Q.** What about the TGI (A498 renal) of the same molecule?
**A.** 10.6 µM

**Q.** And the GI50 (ACHN renal)?
**A.** 1.69 µM

**Q.** And the TGI (ACHN renal)?
**A.** 3.15 µM

**Q.** What about the GI50 (BT-549 breast) of the same molecule?
**A.** 12.7 µM

**Q.** What about the TGI (BT-549 breast) of the same molecule?
**A.** 41.9 µM

**Q.** What about the GI50 (CAKI-1 renal) of the same molecule?
**A.** 1.91 µM

**Q.** What about the TGI (CAKI-1 renal) of the same molecule?
**A.** 5.04 µM

**Q.** What about the GI50 (COLO 205 colon) of the same molecule?
**A.** 4.02 µM

**Q.** What about the TGI (COLO 205 colon) of the same molecule?
**A.** > 100 µM

**Q.** What about the GI50 (EKVX NSCLC) of the same molecule?
**A.** 19.3 µM

**Q.** And the TGI (EKVX NSCLC)?
**A.** 89.7 µM

**Q.** And the GI50 (HCC-2998 colon)?
**A.** 3.89 µM

**Q.** What about the TGI (HCC-2998 colon) of the same molecule?
**A.** > 100 µM

**Q.** What about the GI50 (HL-60(TB) leukemia) of the same molecule?
**A.** 14.5 µM

**Q.** And the TGI (HL-60(TB) leukemia)?
**A.** > 100 µM

**Q.** And the GI50 (HOP-92 NSCLC)?
**A.** 12.2 µM

**Q.** And the TGI (HOP-92 NSCLC)?
**A.** 58.1 µM

**Q.** What about the GI50 (IGROV1 ovarian) of the same molecule?
**A.** 1.76 µM

**Q.** What about the TGI (IGROV1 ovarian) of the same molecule?
**A.** 7.01 µM

**Q.** And the GI50 (MOLT-4 leukemia)?
**A.** 1.82 µM

**Q.** And the TGI (MOLT-4 leukemia)?
**A.** 8.04 µM

**Q.** What about the GI50 (NCI-H522 lung) of the same molecule?
**A.** 2.94 µM

**Q.** And the TGI (NCI-H522 lung)?
**A.** 28.6 µM

**Q.** What about the GI50 (OVCAR-3 ovarian) of the same molecule?
**A.** 3.34 µM

**Q.** What about the TGI (OVCAR-3 ovarian) of the same molecule?
**A.** 10.4 µM

**Q.** And the GI50 (OVCAR-5 ovarian)?
**A.** 1.71 µM

**Q.** What about the TGI (OVCAR-5 ovarian) of the same molecule?
**A.** 3.34 µM

**Q.** What about the GI50 (RPMI-8226 leukemia) of the same molecule?
**A.** 2.74 µM

**Q.** What about the TGI (RPMI-8226 leukemia) of the same molecule?
**A.** 8.59 µM

**Q.** What about the GI50 (SF-295 CNS) of the same molecule?
**A.** 22.1 µM

**Q.** And the TGI (SF-295 CNS)?
**A.** 78.3 µM

**Q.** And the GI50 (SF-539 CNS)?
**A.** 1.52 µM

**Q.** And the TGI (SF-539 CNS)?
**A.** 3.06 µM

**Q.** And the GI50 (SK-MEL-2 melanoma)?
**A.** 2.45 µM

**Q.** And the TGI (SK-MEL-2 melanoma)?
**A.** > 100 µM

**Q.** And the GI50 (SK-MEL-5 melanoma)?
**A.** 6.67 µM

**Q.** What about the TGI (SK-MEL-5 melanoma) of the same molecule?
**A.** 83.1 µM

**Q.** What about the GI50 (SK-OV-3 ovarian) of the same molecule?
**A.** 19.3 µM

**Q.** What about the TGI (SK-OV-3 ovarian) of the same molecule?
**A.** 44.6 µM

**Q.** And the GI50 (SN12C renal)?
**A.** 2.19 µM

**Q.** And the TGI (SN12C renal)?
**A.** 5.43 µM

**Q.** What about the GI50 (SNB-19 CNS) of the same molecule?
**A.** 3.87 µM

**Q.** And the TGI (SNB-19 CNS)?
**A.** > 100 µM

**Q.** And the GI50 (T-47D breast)?
**A.** 28.6 µM

**Q.** And the TGI (T-47D breast)?
**A.** > 100 µM

**Q.** What about the GI50 (UACC-62 melanoma) of the same molecule?
**A.** 1.73 µM

**Q.** What about the TGI (UACC-62 melanoma) of the same molecule?
**A.** 3.26 µM

**Q.** And the GI50 (UO-31 renal)?
**A.** 1.6 µM

**Q.** What about the TGI (UO-31 renal) of the same molecule?
**A.** 2.99 µM

**Q.** With `COc1cc2nc(N3CCN(C(=O)c4ccco4)CC3)nc(N)c2cc1OC` as the molecule, how does the TGI (NCI-H23 lung) read?
**A.** 27.1 µM

From PubChem BioAssay (NCI)
